Key:
[1] = Colloidal solubilization of the active agent with non-ionic surfactant and lecithin
[2] = assay type: physicochemical
Procedure: Buffered aqueous solutions of tyloxapol, DMPC and tyloxapol in a mixture with DMPC were prepared. The saturation solubility of budesonide in these solutions was measured by adding an excess of budesonide and treating the sample with heat and ultrasound and subsequently allowing it to stand for equilibration. The equilibrated samples were filtered through a membrane filter with a pore width of 0.22 µm and the content of budesonide in the filtrate was determined. […]

[3] = Inhalation experiments: local anesthetic effect; assay type: in vivo; conditions: inhalation of 0.55 % (w/v) lidocaine base in colloidal tyloxapol/DMPC solution (Example 5); effect undesirable in this context
From the text: Sometimes, but not necessarily, bad taste is accompanied by mucosal irritations caused by the substance. This occurs in various degrees which, in the case of application by inhalation, may range from slight irritation of the pharynx and/or respiratory tract to cough, fits of coughing, bronchoconstrictions and bronchospasms. […] In a further embodiment of the invention, the preparation accordingly contains an active agent which is irritating to the mucosa or causes coughing or bronchoconstrictions. In this connection, active agents from the group of corticoids, betamimetics, anti-cholinergics, anesthetics and antiinfectives are again preferred.
After a sterile filtration, the colloidal solution was filled into pre-sterilized single dose containers (0.5 - 3 ml) of glass and polypropylene.

[4] = Polysorbate 80 0.10 wt.-%, Lipoid S100 1.0 wt.-%, ratio 1:10
[5] = Polysorbate 80 0.50 wt.-%, Lipoid S100 3.0 wt.-%, ratio 1 : 6

CCCC1O[C@@H]2C[C@H]3[C@@H]4CCC5=CC(=O)C=C[C@]5(C)[C@H]4[C@@H](O)C[C@]3(C)[C@]2(C(=O)CO)O1 (stereo partly drawn) [Budesonide, budesonide]
Budesonide solubilized [1, 4]: 0.36 mg/mL
Budesonide solubilized ([1]; Polysorbate 80 0.15 wt.-%, Lipoid S100 1.5 wt.-%, ratio 1:10): 0.43 mg/mL
Budesonide solubilized ([1]; Polysorbate 80 0.25 wt.-%, Lipoid S100 1.5 wt.-%, ratio 1 : 6): 0.47 mg/mL
Budesonide solubilized ([1]; Polysorbate 80 0.40 wt.-%, Lipoid S100 1.5 wt.-%, ratio 1 : 3.75 (for comparison and/or reference only)): 0.50 mg/mL
Budesonide solubilized ([1]; Polysorbate 80 0.50 wt.-%, Lipoid S100 2.0 wt.-%, ratio 1:4 (for comparison and/or reference only)): 0.83 mg/mL
Budesonide solubilized [1, 5]: 1.09 mg/mL
Budesonide solubilized ([1]; Solutrol HS 15 0.10 wt.-%, Lipoid S100 1.5 wt.-%, ratio 1 : 15): 0.43 mg/mL
Budesonide solubilized ([1]; Solutrol HS 15 0.25 wt.-%, Lipoid S100 1.5 wt.-%, ratio 1 : 6): 0.47 mg/mL
Budesonide solubilized ([1]; Solutrol HS 15 0.50 wt.-%, Lipoid S100 1.5 wt.-%, ratio 1 : 3.33 (for comparison and/or reference only)): 0.48 mg/mL
Budesonide solubilized ([1]; Vitamin E TPGS 0.10 wt.-%, Lipoid S100 1.0 wt.-%, ratio 1 : 10): 0.37 mg/mL
Budesonide solubilized ([1]; Vitamin E TPGS 0.10 wt.-%, Lipoid S100 1.5 wt.-%, ratio 1 : 15): 0.44 mg/mL
Budesonide solubilized ([1]; Vitamin E TPGS 0.25 wt.-%, Lipoid S100 1.5 wt.-%, ratio 1 : 6): 0.46 mg/mL
Budesonide solubilized ([1]; Vitamin E TPGS 0.50 wt.-%, Lipoid S100 1.5 wt.-%, ratio 1 : 3.33 (for comparison and/or reference only)): 0.48 mg/mL
Budesonide solubilized ([1]; Vitamin E TPGS 0.50 wt.-%, Lipoid S100 2.0 wt.-%, ratio 1 : 4 (for comparison and/or reference only)): 0.80 mg/mL
Budesonide solubilized ([1]; Vitamin E TPGS 0.50 wt.-%, Lipoid S100 3.0 wt.-%, ratio 1 : 6): 1.09 mg/mL
budesonide colloidally solubilized at a concentration of ([1]; vitamin E TPGS 0.04 wt.-%, polysorbate 80 0.06 wt.-%, lecithin 1.0 wt.-%): 0.38 mg/mL
budesonide colloidally solubilized at a concentration of ([1]; vitamin E TPGS 0.2 wt.-%, polysorbate 80 0.3 wt.-%, lecithin 3.0 wt.-%): 0.95 mg/mL
saturation concentration of budesonide in DMPC solutions [2]: could not be increased

CCN(CC)CC(=O)Nc1c(C)cccc1C [lidocaine]
local anesthetic effect of lidocaine [3]: reduced

CCC(=O)O[C@]1(C(=O)SCF)[C@H](C)C[C@H]2[C@@H]3C[C@H](F)C4=CC(=O)C=C[C@]4(C)[C@@]3(F)[C@@H](O)C[C@@]21C [Fluticasone prop., fluticasone propionate]
Fluticasone prop. solubilized [1, 4]: 0.07 mg/mL
Fluticasone prop. solubilized [1, 5]: 0.18 mg/mL
